In US7270966B2, “Human pyrimidine receptor” (Euroscreen SA, priority 1995, dated 2007):
Where two headings read alike, the source gives them in different places.

Tests used:
human P2Y4 receptor [1] = target: T1, human P2Y4 receptor (Homo sapiens, UniProt P51582); test: InsP3 accumulation in 1321N1 cells expressing the human P2Y4 receptor; format: cell-based; settings: for agonist effect on InsP3 at 30 s: 30 s incubation, 100 μM; for effect per se on InsP3 production: agonist alone; for functional response (IP3 accumulation) in pool of G418-resistant clones: pool of transfected 1321N1 clones
T1 construct: expressed in transfected cells; host or cells: 1321N1 human astrocytoma cells, G418-selected clone, pcDNA3-P2Y4
T1 sequence (P51582 whole entry): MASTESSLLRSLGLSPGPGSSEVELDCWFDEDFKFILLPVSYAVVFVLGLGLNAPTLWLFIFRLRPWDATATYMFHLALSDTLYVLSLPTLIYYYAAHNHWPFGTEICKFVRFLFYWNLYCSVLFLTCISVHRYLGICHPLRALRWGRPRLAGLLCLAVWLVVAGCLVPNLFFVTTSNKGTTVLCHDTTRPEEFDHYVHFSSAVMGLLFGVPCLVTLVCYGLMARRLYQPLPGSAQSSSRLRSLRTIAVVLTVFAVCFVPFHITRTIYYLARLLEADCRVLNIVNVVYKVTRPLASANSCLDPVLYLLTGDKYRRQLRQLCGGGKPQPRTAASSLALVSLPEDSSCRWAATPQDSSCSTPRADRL
Procedure: Cells were transfected with the recombinant pcDNA3 plasmid (pcDNA3-P2Y4) using the calcium phosphate precipitation method as described (16). 1321N1 cells were incubated for 6 hours at 37° C. in the presence of pcDNA3 vector alone or vector containing the P2Y4 receptor coding sequence, then washed and incubated in culture medium (10% FCS, 100 U/ml penicillin, 100 μ/ml streptomycin and 2.5 μg/ml amphotericin B in Dulbecco's modified Eagle's medium (DMEM)). The selection with G418 (400 μg/ml) was started two days after transfection. From the pool of transfected 1321N1 cells, individual clones were isolated by limiting dilution with the aim of selecting clones with high IP stimulation factors in response to nucleotides. The different clones were maintained in a medium containing 400 μg/ml G418.
(§1) 1321N1 cells were labeled for 24 hours with 10 μCi/ml [^3H] inositol in inositol-free DMEM (Dulbecco's modified Eagle's medium) medium containing 5% fetal calf serum, 100 U/ml penicillin, 100 μg/ml streptomycin, 2.5 μg/ml amphotericin B and 400 μg/ml G418. Cells were washed twice with KRH (Krebs-Ringer Hepes) buffer of the following composition: (124 mM NaCl, 5 mM KCl, 1.25 mM MgSC4, 1.45 mM CaCl2, 25 mM Hepes (pH 7.4) and 8 mM glucose) and incubated in this medium for 30 min The agonists were added in the presence of LiCl (10 mM) and the incubation was stopped after 30 s, 5 min or 20 min by the addition of an ice-cold 3% perchloric acid solution. For the time course study, LiCl (10 mM) was added 5 min before the agonists and the incubation was stopped at different times. When tested, pertussis toxin (20 ng/ml) was added for 18 h during the labeling period time and during the stimulation by the agonist. Inositol phosphates were extracted and InsP3 was isolated by chromatography on Dowex column as described previously (17).

[2] = system: muscarinic receptors endogenously expressed in the 1321N1 cells; test: Action of carbachol (InsP3) via muscarinic receptors endogenously expressed in 1321N1 cells; format: cell-based, human; settings: cells transfected with P2Y4-pcDNA3 or vector alone
Procedure: as §1
The maximal effect of ATP observed after a 20 min incubation represented about 27±9% of that of UTP (mean±S.D. of ten experiments). […] The ATP concentration-inhibition curves were shifted to the right when the UTP concentration was increased, indicating the competitive nature of this inhibitory effect (panels A and B). On the other hand, at lower concentrations (30-300 μM), ATP enhanced the response to UTP by 29% (range 12-47%, mean of four experiments) (panel B). […] This observation was reproduced with cells transfected with the recombinant P2Y4-pcDNA3 plasmid or with the vector alone and was also obtained with AMP and adenosine (data not shown).

human P2Y4 receptor [3] = target: T1, human P2Y4 receptor; test: Radioligand binding of [α32P]UTP to membranes of P2Y4-transfected 1321N1 clones; settings: clones 2, 11 and 21; 0.5 nM radioligand; data not shown
Procedure: Binding assays of [α^32P] UTP to cell membranes were carried out in Tris-HCl (50 mM, pH 7.5), EDTA 1 mM in a final volume of 0.5 ml, containing 25-50 μg of protein and 0.5 nM of radioligand (27). The assays were conducted at 30° C. for 5 min. Incubations were stopped by the addition of 4 ml of ice-cold Tris-HCl (50 mM, pH 7.5) and rapid filtration through Whatman GF/B filters under reduced pressure. The filters were then washed three times with 2 ml of the same ice-cold Tris-HCl buffer. Radioactivity was quantified by liquid scintillation counting, after an overnight incubation of the filters in liquid scintillation mixture.

[4] = 20 min incubation, 10 mM LiCl, read-out: EC50 InsP3 accumulation, full concentration-action curves
[5] = clone 2, 20 min incubation, 10 mM LiCl, read-out: EC50 InsP3 production
[6] = clone 11, 20 min incubation, 10 mM LiCl, read-out: EC50 InsP3 production
[7] = clone 21, 20 min incubation, 10 mM LiCl, read-out: EC50 InsP3 production
[8] = antagonist 100 μM, UTP 2 and 10 μM, 20 min

Molecule: O=c1[nH]c(=O)n([C@@H]2O[C@H](COP(=O)(O)OP(=O)(O)OP(=O)(O)O)[C@@H](O)[C@H]2O)cc1Br [5BrUTP]
- agonist effect on InsP3 at 30 s (human P2Y4 receptor [1]): barely or not active
- EC50 (human P2Y4 receptor [1]; [4]): 27.1 ± 1.9 µM

Molecule: O=c1ccn([C@@H]2O[C@H](COP(=O)(O)OP(=O)(O)O)[C@@H](O)[C@H]2O)c(=O)[nH]1 [UDP]
- agonist effect on InsP3 at 30 s (human P2Y4 receptor [1]): barely or not active
- EC50 (human P2Y4 receptor [1]; [4]): 19.5 ± 3.9 µM
- EC50 (human P2Y4 receptor [1]; [5]): 3.3 ± 0.6 µM
- EC50 (human P2Y4 receptor [1]; [6]): 19.8 ± 4.8 µM
- EC50 (human P2Y4 receptor [1]; [7]): 3.2 ± 0.8 µM

Molecule: O=c1ccn([C@@H]2O[C@H](COP(=O)(O)O)[C@@H](O)[C@H]2O)c(=O)[nH]1 [UMP]
- effect per se on InsP3 production (human P2Y4 receptor [1]; data not shown): without any effect

Molecule: Cc1ccc(C(=O)Nc2ccc(S(=O)(=O)O)c3cc(S(=O)(=O)O)cc(S(=O)(=O)O)c23)cc1NC(=O)c1cccc(NC(=O)Nc2cccc(C(=O)Nc3cc(C(=O)Nc4ccc(S(=O)(=O)O)c5cc(S(=O)(=O)O)cc(S(=O)(=O)O)c45)ccc3C)c2)c1 [suramin]
- inhibition of the UTP response by antagonist (human P2Y4 receptor [1]; [8]): inactive

Molecule: Nc1ncnc2c1ncn2[C@@H]1O[C@H](COP(=O)(O)O)[C@@H](O)[C@H]1O [AMP]
- effect on the action of carbachol [2]: increased
- effect per se on InsP3 production (human P2Y4 receptor [1]; data not shown): without any effect

Molecule: Nc1ncnc2c1ncn2[C@@H]1O[C@H](COP(=O)(O)OP(=O)(O)OP(=O)(O)O)[C@@H](O)[C@H]1O [ATP]
- effect on the action of carbachol [2]: increased
- agonist effect on InsP3 at 30 s (human P2Y4 receptor [1]): no effect
- EC50 (human P2Y4 receptor [1]; [4]): ~43 µM
- maximal effect relative to that of UTP (human P2Y4 receptor [1]; 20 min incubation, % of UTP maximal effect): about 27±9%
- enhancement of the response to UTP (human P2Y4 receptor [1]; ATP 30-300 μM, 20 min): 29%
- antagonism of the response to UTP (human P2Y4 receptor [1]; UTP 10 μM, ATP 2 mM, 30 s): fully antagonized
- inhibition of the UTP effect (human P2Y4 receptor [1]; UTP 10 μM, ATP 2 mM, 20 min): 62±11%
- ATP concentration able to inhibit the effect of UTP (human P2Y4 receptor [1]; both at 30 s and 20 min): ≥ 500 µM
- functional response (IP3 accumulation) in pool of G418-resistant clones (human P2Y4 receptor [1]): agonists

Molecule: Nc1ncnc2c1ncn2[C@@H]1O[C@H](CO)[C@@H](O)[C@H]1O [adenosine]
- effect on the action of carbachol [2]: increased
- effect per se on InsP3 production (human P2Y4 receptor [1]; data not shown): without any effect

Molecule: O=c1[nH]cnc2c1ncn2[C@@H]1O[C@H](COP(=O)(O)OP(=O)(O)OP(=O)(O)O)[C@@H](O)[C@H]1O [ITP]
- agonist effect on InsP3 at 30 s (human P2Y4 receptor [1]): barely or not active
- EC50 (human P2Y4 receptor [1]; [4]): 32.8 ± 5.4 µM

Molecule: O=c1ccn(C2OC(CO[32P](=O)(O)OP(=O)(O)OP(=O)(O)O)C(O)C2O)c(=O)[nH]1 (stereo not drawn) [[α^32P] UTP]
- specific binding versus cells transfected with the vector alone (human P2Y4 receptor [3]): no increase in specific binding

Molecule: pertussis toxin
- inhibition of the UTP response by pertussis toxin (human P2Y4 receptor [1]; 20 ng/ml, 18 hours pretreatment, UTP 100 μM, 30 s): 62±5%
- effect of pertussis toxin on the UTP response (human P2Y4 receptor [1]; 20 ng/ml, 18 hours pretreatment, UTP 100 μM, 5 min): no significant effect
- effect of pertussis toxin on the UTP response (human P2Y4 receptor [1]; 20 ng/ml, 18 hours pretreatment, UTP 100 μM, 20 min): no significant effect

Molecule: Nc1c(S(=O)(=O)O)cc(Nc2ccc(Nc3nc(Cl)nc(Nc4cccc(S(=O)(=O)O)c4)n3)c(S(=O)(=O)O)c2)c2c1C(=O)c1ccccc1C2=O [RB-2, reactive blue 2]
- inhibition of the UTP response by antagonist (human P2Y4 receptor [1]): 33±5%

Molecule: O=c1ccn([C@@H]2O[C@H](CO)[C@@H](O)[C@H]2O)c(=O)[nH]1 [uridine]
- effect per se on InsP3 production (human P2Y4 receptor [1]; data not shown): without any effect

Molecule: O=c1ccn([C@@H]2O[C@H](COP(=O)(O)OP(=O)(O)OP(=O)(O)O)[C@@H](O)[C@H]2O)c(=O)[nH]1 [UTP, uridine triphosphate]
- EC50 (human P2Y4 receptor [1]; 20 min, 100 μM PPADS, read-out: EC50 value for UTP in the presence of PPADS): 12.2 ± 4.5 µM
- EC50 (human P2Y4 receptor [1]; 20 min, no PPADS, read-out: EC50 value for UTP in the absence of PPADS): 3.3 ± 0.6 µM
- EC50 (human P2Y4 receptor [1]; [4]): 2.5 ± 0.6 µM
- EC50 (human P2Y4 receptor [1]; [5]): 0.3 ± 0.1 µM
- potency of UTP relative to UDP (human P2Y4 receptor [1]; clone 11, 20 min incubation): 10 fold
- EC50 (human P2Y4 receptor [1]; [6]): 2.4 ± 0.1 µM
- EC50 (human P2Y4 receptor [1]; [7]): 0.3 ± 0.1 µM
- functional response (IP3 accumulation) in pool of G418-resistant clones (human P2Y4 receptor [1]): agonists

Molecule: Nc1ncnc2c1ncn2[C@@H]1O[C@H](COP(=O)(O)OP(=O)(O)O)[C@@H](O)[C@H]1O [ADP]
- effect on the action of carbachol [2]: increased
- inhibition of the action of UTP (qualitative) (human P2Y4 receptor [1]): did not inhibit
- stimulation by UTP in presence of ADP, relative to UTP alone (human P2Y4 receptor [1]; ADP 100 μM, UTP 10 μM): 158±15%
- effect per se on InsP3 production (human P2Y4 receptor [1]; data not shown): almost no effect

Molecule: O=c1ccn([C@H]2C[C@H](O)[C@@H](COP(=O)(O)OP(=O)(O)OP(=O)(O)O)O2)c(=O)[nH]1 [dUTP]
- agonist effect on InsP3 at 30 s (human P2Y4 receptor [1]): barely or not active
- EC50 (human P2Y4 receptor [1]; [4]): 20 ± 2.3 µM

Molecule: Cc1nc(N=Nc2ccc(S(=O)(=O)O)cc2S(=O)(=O)O)c(COP(=O)(O)O)c(C=O)c1O [PPADS]
- inhibition of the UTP response by antagonist (human P2Y4 receptor [1]; [8]): 73±14%
- IC50 (human P2Y4 receptor [1]; data not shown, read-out: IC50 for inhibition of the UTP response): ~15 µM

Molecule: Nc1ncnc2c1ncn2[C@@H]1O[C@H](COP(=O)(O)OP(=O)(O)OP(O)(O)=S)[C@@H](O)[C@H]1O [ATPyS]
- effect per se on InsP3 production (human P2Y4 receptor [1]; data not shown): without any effect
